Assay results reported in US20050192256A1, “Methods of using vitamin D compounds in the treatment of patients undergoing hemodialysis” (priority 2003, published 2005).

Columns and labels:
[1] = Association of Vitamin D therapy, serum PTH and CaxP product quintiles with hospitalization outcomes in hemodialysis patients (cohort, negative binomial regression); format: in vivo, human; details: for association between quintiles of PTH, CaxP and hospital outcomes (morbidity): interaction of laboratory quintiles and Vitamin D therapy
Text: Elevated PTH and CaxP levels have been considered risk factors for increased mortality and morbidity (M&M) in HD patients. […] To date, the relationship between M&M, PTH, CaxP product and the impact of Vitamin D therapy, however, has not been addressed. Thus, by quintiles, an analysis was made of the baseline distribution of serum iPTH, and CaxP product levels in HD patients who received paricalcitol (P), calcitriol (C) or no Vitamin D (NoD) therapy in regard to their relationship with hospitalization outcomes as defined by hospitalizations per year (HOSP) and hospital days per year (DAYS). The cohort consisted of 11,340 adult patients new to HD between January 1999 and November 2001; there were 2,316 patients treated with P; 2,299 patients treated with C and 6,725 patients NoD.

[2] = recent data; cited from earlier work
[3] = Vitamin D therapy and K/DOQI guidelines on hospitalization outcomes in hemodialysis patients (cohort, negative binomial regression); format: in vivo, human; details: for annual hospitalizations (HOSP) and hospital days (DAYS), NoD group compared with treated group: NoD (N=3007) vs P (N=1318) or C (N=1432), therapy at least 180 days
Text: An examination was made of the relationship between Vitamin D therapy and K/DOQI guidelines on hospitalization outcomes, as a surrogate for morbidity, in hemodialysis (HD) patients. The cohort consisted of U.S. patients who were new to HD during the period from January 1999 to December 2001 and who received paricalcitol (P), calcitriol (C) or no vitamin D (NoD) therapy for at least 180 days. To allow for patients to be stabilized after initiation to Vitamin D or NoD therapy, baseline laboratory values were defined over the initial 90-180 days of the observation period; mean values over this baseline period were assessed relative to K/DOQI guidelines. Patients with baseline laboratory measurements within K/DOQI guidelines served as reference groups. An interaction term was created to examine the relationship between Vitamin D therapy and the K/DOQI baseline assessment. Outcomes were defined by annual hospitalizations (HOSP) and hospital days (DAYS). Analysis was performed using negative binomial regression modeling.

Row | Structure (SMILES) | fewer DAYS (hospital days per year) compared to C group ([1]; 2,316 patients P vs 2,299 C, p=0.0036) [%] | fewer DAYS (hospital days per year) compared to NoD group ([1]; 2,316 patients P vs 6,725 NoD, p<0.0001) [%] | association between quintiles of PTH, CaxP and hospital outcomes (morbidity) [1] | survival in HD patients [2] | difference in outcomes for patients within K/DOQI guidelines compared to those outside of guidelines ([3]; HOSP and DAYS) | annual hospitalizations (HOSP) and hospital days (DAYS), NoD group compared with treated group ([3]; p<0.05) | hospitalization outcomes, ranking among groups ([3]; P vs C vs NoD) | DAYS in the 2nd quintile of CaxP compared to the reference group (3rd quintile) ([1]; human, in vivo) | increase in DAYS for patients outside of K/DOQI guidelines for Phos ([3]; interaction assessment, reference: patients within K/DOQI guidelines, p<0.05) [%]
1 | C[C@H](/C=C/[C@H](C)C(C)(C)O)[C@H]1CC[C@H]2/C(=C/C=C3C[C@@H](O)C[C@H](O)C3)CCC[C@]12C [paricalcitol, 19-nor-1α,3β,25-trihydroxy-9,10-secoergosta-5(Z); 7(E),22(E)-triene] | 72 | 90 | not associated with morbidity | associated with survival benefit | no significant difference | significantly more HOSP and DAYS | fewest hospitalization outcomes |  | 
2 | C=C1/C(=C\C=C2/CCC[C@]3(C)[C@@H]([C@H](C)CCCC(C)(C)O)CC[C@@H]23)C[C@@H](O)C[C@@H]1O [calcitriol, 1α,25-dihydroxy-vitamin D3] |  |  | no significant associations |  |  | significantly more HOSP and DAYS |  | significantly fewer DAYS | 40
